# In PubChem BioAssay AID2060892 (Molecular Pharmacology Branch, DTP, NCI, 2025):
# Tested on: HOP-62 complex spheroids with HUVEC/MSC, viability
# Experiment: Anticancer human tumor HOP-62 cell line growth inhibition [RAS];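 note: spheroids exposed to agents for seven days before readout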;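 for viability, T/C: 100% = DMSO vehicle control viability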
# Conditions: for IC50: curve of first compound; for viability, T/C: stronger effect = lower value
# In short: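 Tumour cells grown as complex spheroids with HUVEC endothelial cells and mesenchymal stem cells, treated with RAS pathway inhibitor combinations. Each agent spans half-log steps from near clinical Cmax, or 10 microM where Cmax is unknown.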
# [1] = second compound 0.00316 µM, first compound 0.0316 µM
# [2] = second compound 0.00316 µM, first compound 0.1 µM
# [3] = second compound 0.00316 µM, first compound 0.316 µM
# [4] = second compound 0.00316 µM, first compound 1 µM
# [5] = second compound 0.00316 µM, first compound 3.16 µM
# [6] = second compound 0.00316 µM, first compound 10 µM
# [7] = second compound 0.01 µM, first compound 0.0316 µM
# [8] = second compound 0.01 µM, first compound 0.1 µM
# [9] = second compound 0.01 µM, first compound 0.316 µM
# [10] = second compound 0.01 µM, first compound 1 µM
# [11] = second compound 0.01 µM, first compound 3.16 µM
# [12] = second compound 0.01 µM, first compound 10 µM
# [13] = second compound 0.0316 µM, first compound 0.0316 µM
# [14] = second compound 0.0316 µM, first compound 0.1 µM
# [15] = second compound 0.0316 µM, first compound 0.316 µM
# [16] = second compound 0.0316 µM, first compound 1 µM
# [17] = second compound 0.0316 µM, first compound 3.16 µM
# [18] = second compound 0.0316 µM, first compound 10 µM
# [19] = second compound 0.1 µM, first compound 0.0316 µM
# [20] = second compound 0.1 µM, first compound 0.1 µM
# [21] = second compound 0.1 µM, first compound 0.316 µM
# [22] = second compound 0.1 µM, first compound 1 µM
# [23] = second compound 0.1 µM, first compound 3.16 µM
# [24] = second compound 0.1 µM, first compound 10 µM
# [25] = second compound 0.316 µM, first compound 0.0316 µM
# [26] = second compound 0.316 µM, first compound 0.1 µM
# [27] = second compound 0.316 µM, first compound 0.316 µM
# [28] = second compound 0.316 µM, first compound 1 µM
# [29] = second compound 0.316 µM, first compound 3.16 µM
# [30] = second compound 0.316 µM, first compound 10 µM
# [31] = second compound 1 µM, first compound 0.0316 µM
# [32] = second compound 1 µM, first compound 0.1 µM
# [33] = second compound 1 µM, first compound 0.316 µM
# [34] = second compound 1 µM, first compound 1 µM
# [35] = second compound 1 µM, first compound 3.16 µM
# [36] = second compound 1 µM, first compound 10 µM
smiles,measurement,setting,value
CC(=O)OC12COC1CC(O)C1(C)C(=O)C(O)C3=C(C)C(OC(=O)C(O)C(NC(=O)OC(C)(C)C)c4ccccc4)CC(O)(C(OC(=O)c4ccccc4)C21)C3(C)C (stereo not drawn) + C=CC(=O)N1CCN(c2nc(OCC3CCCN3C)nc3c(F)c(-c4nc(N)cc(C)c4C(F)(F)F)c(Cl)cc23)C(C)C1,IC50,second compound 0.00316 µM,< 31.6 nM
same,IC50,second compound 0.01 µM,< 31.6 nM
same,IC50,second compound 0.0316 µM,< 31.6 nM
same,IC50,second compound 0.1 µM,< 31.6 nM
same,IC50,second compound 0.316 µM,< 31.6 nM
same,IC50,second compound 1 µM,< 31.6 nM
same,"viability, T/C",[1],11.2%
same,"viability, T/C",[2],14.7%
same,"viability, T/C",[3],10.4%
same,"viability, T/C",[4],12.3%
same,"viability, T/C",[5],15.1%
same,"viability, T/C",[6],20.3%
same,"viability, T/C",[7],10.4%
same,"viability, T/C",[8],11.1%
same,"viability, T/C",[9],13.4%
same,"viability, T/C",[10],10.4%
same,"viability, T/C",[11],12.5%
same,"viability, T/C",[12],16.6%
same,"viability, T/C",[13],9.88%
same,"viability, T/C",[14],11.9%
same,"viability, T/C",[15],11%
same,"viability, T/C",[16],13%
same,"viability, T/C",[17],15.2%
same,"viability, T/C",[18],14.6%
same,"viability, T/C",[19],11.6%
same,"viability, T/C",[20],12.4%
same,"viability, T/C",[21],11.9%
same,"viability, T/C",[22],13.6%
same,"viability, T/C",[23],15.2%
same,"viability, T/C",[24],19%
same,"viability, T/C",[25],9.18%
same,"viability, T/C",[26],9.55%
same,"viability, T/C",[27],10.4%
same,"viability, T/C",[28],10.9%
same,"viability, T/C",[29],14.8%
same,"viability, T/C",[30],20.1%
same,"viability, T/C",[31],10.2%
same,"viability, T/C",[32],10.5%
same,"viability, T/C",[33],13%
same,"viability, T/C",[34],14.2%
same,"viability, T/C",[35],15.5%
same,"viability, T/C",[36],20.1%
CCc1c2c(nc3ccc(O)cc13)-c1cc3c(c(=O)n1C2)COC(=O)[C@]3(O)CC + C=CC(=O)N1CCN(c2nc(OCC3CCCN3C)nc3c(F)c(-c4nc(N)cc(C)c4C(F)(F)F)c(Cl)cc23)C(C)C1,IC50,second compound 0.00316 µM,< 0.949 nM
same,IC50,second compound 0.01 µM,< 0.949 nM
same,IC50,second compound 0.0316 µM,< 0.949 nM
same,IC50,second compound 0.1 µM,< 0.949 nM
same,IC50,second compound 0.316 µM,< 0.949 nM
same,IC50,second compound 1 µM,< 0.949 nM
same,"viability, T/C","second compound 0.00316 µM, first compound 0.000949 µM",46.5%
same,"viability, T/C","second compound 0.00316 µM, first compound 0.003 µM",11.8%
same,"viability, T/C","second compound 0.00316 µM, first compound 0.00949 µM",6.88%
same,"viability, T/C","second compound 0.00316 µM, first compound 0.03 µM",3.96%
same,"viability, T/C","second compound 0.00316 µM, first compound 0.0949 µM",2.91%
same,"viability, T/C","second compound 0.00316 µM, first compound 0.3 µM",4.33%
same,"viability, T/C","second compound 0.01 µM, first compound 0.000949 µM",47.3%
same,"viability, T/C","second compound 0.01 µM, first compound 0.003 µM",11.6%
same,"viability, T/C","second compound 0.01 µM, first compound 0.00949 µM",6.73%
same,"viability, T/C","second compound 0.01 µM, first compound 0.03 µM",4.31%
same,"viability, T/C","second compound 0.01 µM, first compound 0.0949 µM",3.65%
same,"viability, T/C","second compound 0.01 µM, first compound 0.3 µM",2.46%
same,"viability, T/C","second compound 0.0316 µM, first compound 0.000949 µM",42.5%
same,"viability, T/C","second compound 0.0316 µM, first compound 0.003 µM",9.52%
same,"viability, T/C","second compound 0.0316 µM, first compound 0.00949 µM",5.4%
same,"viability, T/C","second compound 0.0316 µM, first compound 0.03 µM",3.77%
same,"viability, T/C","second compound 0.0316 µM, first compound 0.0949 µM",2.66%
same,"viability, T/C","second compound 0.0316 µM, first compound 0.3 µM",2.57%
same,"viability, T/C","second compound 0.1 µM, first compound 0.000949 µM",47.7%
same,"viability, T/C","second compound 0.1 µM, first compound 0.003 µM",10.1%
same,"viability, T/C","second compound 0.1 µM, first compound 0.00949 µM",6.42%
same,"viability, T/C","second compound 0.1 µM, first compound 0.03 µM",3.2%
same,"viability, T/C","second compound 0.1 µM, first compound 0.0949 µM",3.67%
same,"viability, T/C","second compound 0.1 µM, first compound 0.3 µM",2.48%
same,"viability, T/C","second compound 0.316 µM, first compound 0.000949 µM",40.5%
same,"viability, T/C","second compound 0.316 µM, first compound 0.003 µM",10.3%
same,"viability, T/C","second compound 0.316 µM, first compound 0.00949 µM",8.01%
same,"viability, T/C","second compound 0.316 µM, first compound 0.03 µM",5.51%
same,"viability, T/C","second compound 0.316 µM, first compound 0.0949 µM",4.05%
same,"viability, T/C","second compound 0.316 µM, first compound 0.3 µM",2.72%
same,"viability, T/C","second compound 1 µM, first compound 0.000949 µM",43.2%
same,"viability, T/C","second compound 1 µM, first compound 0.003 µM",12.4%
same,"viability, T/C","second compound 1 µM, first compound 0.00949 µM",6.37%
same,"viability, T/C","second compound 1 µM, first compound 0.03 µM",4.48%
same,"viability, T/C","second compound 1 µM, first compound 0.0949 µM",2.92%
same,"viability, T/C","second compound 1 µM, first compound 0.3 µM",2.71%
NC1c2ccccc2OC12CCN(c1cnc3c(N4CCCc5ncccc54)n[nH]c3n1)CC2 (stereo not drawn) + C=CC(=O)N1CCN(c2nc(OCC3CCCN3C)nc3c(F)c(-c4nc(N)cc(C)c4C(F)(F)F)c(Cl)cc23)C(C)C1,IC50,second compound 0.00316 µM,< 31.6 nM
same,IC50,second compound 0.01 µM,< 31.6 nM
same,IC50,second compound 0.0316 µM,< 31.6 nM
same,IC50,second compound 0.1 µM,< 31.6 nM
same,IC50,second compound 0.316 µM,< 31.6 nM
same,IC50,second compound 1 µM,< 31.6 nM
same,"viability, T/C",[1],45.5%
same,"viability, T/C",[2],30.2%
same,"viability, T/C",[3],15%
same,"viability, T/C",[4],13.9%
same,"viability, T/C",[5],9.04%
same,"viability, T/C",[6],8.74%
same,"viability, T/C",[7],34.9%
same,"viability, T/C",[8],22.6%
same,"viability, T/C",[9],11.9%
same,"viability, T/C",[10],11.9%
same,"viability, T/C",[11],9.09%
same,"viability, T/C",[12],10.8%
same,"viability, T/C",[13],30.6%
same,"viability, T/C",[14],18.5%
same,"viability, T/C",[15],12.2%
same,"viability, T/C",[16],10.9%
same,"viability, T/C",[17],10.3%
same,"viability, T/C",[18],7.74%
same,"viability, T/C",[19],30.8%
same,"viability, T/C",[20],15.1%
same,"viability, T/C",[21],11%
same,"viability, T/C",[22],10.3%
same,"viability, T/C",[23],9.12%
same,"viability, T/C",[24],8.09%
same,"viability, T/C",[25],28.3%
same,"viability, T/C",[26],14.4%
same,"viability, T/C",[27],11.2%
same,"viability, T/C",[28],10.5%
same,"viability, T/C",[29],6.82%
same,"viability, T/C",[30],8.51%
same,"viability, T/C",[31],29.5%
same,"viability, T/C",[32],15.3%
same,"viability, T/C",[33],10.8%
same,"viability, T/C",[34],9.35%
same,"viability, T/C",[35],10.7%
same,"viability, T/C",[36],5.7%
Nc1ccn(C2OC(CO)C(O)C2(F)F)c(=O)n1 (stereo not drawn) + C=CC(=O)N1CCN(c2nc(OCC3CCCN3C)nc3c(F)c(-c4nc(N)cc(C)c4C(F)(F)F)c(Cl)cc23)C(C)C1,IC50,second compound 0.00316 µM,4.79 nM
same,IC50,second compound 0.01 µM,4 nM
same,IC50,second compound 0.0316 µM,3.8 nM
same,IC50,second compound 0.1 µM,3.57 nM
same,IC50,second compound 0.316 µM,3.88 nM
same,IC50,second compound 1 µM,3.32 nM
same,"viability, T/C","second compound 0.00316 µM, first compound 0.00316 µM",71.5%
same,"viability, T/C","second compound 0.00316 µM, first compound 0.01 µM",11.7%
same,"viability, T/C",[1],4.51%
same,"viability, T/C",[2],3.58%
same,"viability, T/C",[3],3.88%
same,"viability, T/C",[4],4.22%
same,"viability, T/C","second compound 0.01 µM, first compound 0.00316 µM",61%
same,"viability, T/C","second compound 0.01 µM, first compound 0.01 µM",7.13%
same,"viability, T/C",[7],4.46%
same,"viability, T/C",[8],3.64%
same,"viability, T/C",[9],3.98%
same,"viability, T/C",[10],4.49%
same,"viability, T/C","second compound 0.0316 µM, first compound 0.00316 µM",57.3%
same,"viability, T/C","second compound 0.0316 µM, first compound 0.01 µM",11.7%
same,"viability, T/C",[13],4.71%
same,"viability, T/C",[14],4.6%
same,"viability, T/C",[15],4.09%
same,"viability, T/C",[16],3.59%
same,"viability, T/C","second compound 0.1 µM, first compound 0.00316 µM",54.7%
same,"viability, T/C","second compound 0.1 µM, first compound 0.01 µM",10.5%
same,"viability, T/C",[19],3.96%
same,"viability, T/C",[20],3.63%
same,"viability, T/C",[21],4.57%
same,"viability, T/C",[22],3.1%
same,"viability, T/C","second compound 0.316 µM, first compound 0.00316 µM",58.8%
same,"viability, T/C","second compound 0.316 µM, first compound 0.01 µM",9.95%
same,"viability, T/C",[25],5.61%
same,"viability, T/C",[26],4.79%
same,"viability, T/C",[27],5.44%
same,"viability, T/C",[28],3.53%
same,"viability, T/C","second compound 1 µM, first compound 0.00316 µM",51.9%
same,"viability, T/C","second compound 1 µM, first compound 0.01 µM",6.83%
same,"viability, T/C",[31],4.34%
same,"viability, T/C",[32],3.74%
same,"viability, T/C",[33],4.68%
same,"viability, T/C",[34],3.28%
